These results are taken from publication PMC3701944 (Journal of medicinal chemistry, 2013).

Common to all, as to type: biochemical
Assay [1] concerns the target cloned human μ opioid receptor (MOP) (Homo sapiens, UniProt P35372). The experiment in a line: [35S]GTPγS binding assay, inhibition of DAMGO-stimulated binding. For orientation: Binding of GTPγS marks nucleotide exchange on a G protein.
Assay [2] has as its target cloned human δ opioid receptor (DOP) (Homo sapiens, UniProt P41143). The experiment in a line: [35S]GTPγS binding assay, inhibition of DPDPE-stimulated binding.
The target of assay [3] is cloned human κ opioid receptor (KOP) (Homo sapiens, UniProt P41145). Briefly: [35S]GTPγS binding assay, inhibition of U69,593-stimulated binding. To be noted: for δ/κ: selectivity for κ relative to δ (fold).
cloned human κ opioid receptor (KOP), sequence (P41145 whole entry): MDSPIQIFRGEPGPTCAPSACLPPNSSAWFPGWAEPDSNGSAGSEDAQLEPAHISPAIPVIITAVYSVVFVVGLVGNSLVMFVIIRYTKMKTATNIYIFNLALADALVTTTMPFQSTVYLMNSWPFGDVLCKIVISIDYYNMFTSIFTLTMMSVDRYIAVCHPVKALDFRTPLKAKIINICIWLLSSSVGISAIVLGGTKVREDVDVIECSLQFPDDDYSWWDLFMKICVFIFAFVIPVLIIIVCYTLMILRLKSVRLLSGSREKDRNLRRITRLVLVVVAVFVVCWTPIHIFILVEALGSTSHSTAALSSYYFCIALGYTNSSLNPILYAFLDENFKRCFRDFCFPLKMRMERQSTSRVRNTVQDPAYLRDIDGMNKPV

Where only a bound is given, the exact number is not on record here.

cloned human μ opioid receptor (MOP), sequence (P35372 whole entry): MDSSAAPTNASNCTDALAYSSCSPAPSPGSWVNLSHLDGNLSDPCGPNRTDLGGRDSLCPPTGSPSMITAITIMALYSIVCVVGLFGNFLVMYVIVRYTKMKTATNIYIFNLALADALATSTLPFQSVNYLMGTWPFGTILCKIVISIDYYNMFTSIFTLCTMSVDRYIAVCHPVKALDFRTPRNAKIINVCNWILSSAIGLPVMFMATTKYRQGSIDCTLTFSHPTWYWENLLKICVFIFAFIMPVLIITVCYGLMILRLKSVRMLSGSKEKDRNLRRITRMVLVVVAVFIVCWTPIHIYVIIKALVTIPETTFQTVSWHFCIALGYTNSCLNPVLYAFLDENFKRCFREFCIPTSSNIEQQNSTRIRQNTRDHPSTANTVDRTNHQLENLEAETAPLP
cloned human δ opioid receptor (DOP), sequence (P41143 whole entry): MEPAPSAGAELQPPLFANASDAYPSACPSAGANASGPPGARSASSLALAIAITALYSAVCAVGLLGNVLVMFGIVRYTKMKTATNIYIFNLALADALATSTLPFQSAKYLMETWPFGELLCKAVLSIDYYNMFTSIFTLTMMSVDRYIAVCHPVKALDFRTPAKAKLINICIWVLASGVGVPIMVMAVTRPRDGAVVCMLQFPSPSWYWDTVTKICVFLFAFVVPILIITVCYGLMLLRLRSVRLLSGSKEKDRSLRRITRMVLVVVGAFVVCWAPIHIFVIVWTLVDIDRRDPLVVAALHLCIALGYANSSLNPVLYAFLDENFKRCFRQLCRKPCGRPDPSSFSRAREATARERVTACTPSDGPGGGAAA

As to `CC(C)[C@@H](CN1CCN(c2cccc(O)c2)[C@H](C)C1)NC(=O)[C@H]1Cc2ccc(O)cc2CN1` [10b, (3R)-7-Hydroxy-N-[(1S)-1-[[(3R)-4-(3-hydroxyphenyl)-3-methylpiperazin-1-yl]methyl}-2-methylpropyl]-1,2,3,4-tetrahydroisoquinoline-3-carboxamide], the figures for the Kb in assay [1] and in assay [2] were 49.4 ± 2.7 nM and 1550 ± 251 nM, respectively.

Regarding “N-(1S)-1-{[(3S)-4-(3-Hydroxyphenyl)-3-methylpiperazin-1-yl]methyl}-2-methylpropyl]-5-phenoxypyridine-2-carboxamide [compound 14]”, the δ/κ in assay [3] (ratio of Ke values) is reported as 1119. In addition, the μ/κ in assay [3] (ratio of Ke values, selectivity for κ relative to μ (fold)) came to 38.

Regarding `COc1cc(C(=O)N[C@H](CN2CCN(c3cccc(O)c3)[C@@H](C)C2)C(C)C)ccc1Oc1cc(C)ccc1O` [12k, 4-(2-Hydroxy-5-methylphenoxy)-N-[(1S)-1-{[(3S)-4-(3-hydroxyphenyl)-3-methylpiperazin-1-yl]methyl}-2-methylpropyl]-3-methoxybenzamide], the Kb in assay [1] turned out to be 10.2 ± 3 nM; in assay [2], 117 ± 80 nM.

Consider `COc1ccc(C(=O)N[C@H](CN2CCN(c3cccc(O)c3)[C@@H](C)C2)C(C)C)cc1OC` [compound 24, N-[(1S)-1-{[(3S)-4-(3-Hydroxyphenyl)-3-methylpiperazin-1-yl]methyl}-2-methylpropyl]-3,4-dimethoxybenzamide], for which the Kb in assay [1] is 334 ± 110 nM; in assay [2], more than 10000 nM; in assay [3] it was 81.7 ± 30 nM. Further, the δ/κ in assay [3] (ratio of Ke values) is listed as more than 122.

In assay [2], `COc1cc(C(=O)N[C@H](CN2CCN(c3cccc(O)c3)[C@@H](C)C2)C(C)C)ccc1Oc1ccccc1O` [12i, 4-(2-Hydroxyphenoxy)-N-[(1S)-1-{[(3S)-4-(3-hydroxyphenyl)-3-methylpiperazin-1-yl]methyl}-2-methylpropyl]-3-methoxybenzamide] gave a Kb of 117 ± 60 nM.

Regarding `CC(C)[C@@H](CN1CCN(c2cccc(O)c2)[C@@H](C)C1)NC(=O)c1ccc(Oc2ccccc2O)c(Cl)c1` [12j, 3-Chloro-4-(2-hydroxyphenoxy)-N-[(1S)-1-{[(3S)-4-(3-hydroxyphenyl)-3-methylpiperazin-1-yl]methyl}-2-methylpropyl]benzamide], the values for the Kb in assay [1], in assay [2] and in assay [3] were 36 ± 9 nM, 210 ± 82 nM and 5 ± 0.82 nM, respectively.

Regarding `CC(C)[C@@H](CN1CCN(c2cccc(O)c2)[C@@H](C)C1)NC(=O)[C@H]1Cc2ccc(O)cc2CN1` [10a, (3R)-7-Hydroxy-N-[(1S)-1-{[(3S)-4-(3-hydroxyphenyl)-3-methylpiperazin-1-yl]methyl}-2-methylpropyl]-1,2,3,4-tetrahydroisoquinoline-3-carboxamide], the Kb in assay [1] was found to be 74.2 ± 7.6 nM; in assay [2], 1310 ± 317 nM.

Take `Cc1cccc(Oc2ccc(C(=O)N[C@H](CN3CCN(c4cccc(O)c4)[C@@H](C)C3)C(C)C)c(O)c2)c1` [12h, 2-Hydroxy-N-[(1S)-1-{[(3S)-4-(3-hydroxyphenyl)-3-methylpiperazin-1-yl]methyl}-2-methylpropyl]-4-(3-methylphenoxy)benzamide]: the Kb in assay [1] was 119 ± 28 nM; in assay [2], 880 ± 320 nM; in assay [3], 1.9 ± 0.4 nM.

With `CC(C)[C@@H](CN1CCN(c2cccc(O)c2)[C@@H](C)C1)NC(=O)c1ccc(-c2ccccc2)cc1` [compound 22, N-[(1S)-1-{[(3S)-4-(3-Hydroxyphenyl)-3-methylpiperazin-1-yl]methyl}-2-methylpropyl]biphenyl-4-carboxamide], the Kb came out at 8.69 ± 3 nM in assay [1], 258 ± 88 nM in assay [2] and 1.87 ± 0.47 nM in assay [3].

For `Cc1cccc(Oc2ccc(C(=O)N[C@H](CN3CCN(c4cccc(O)c4)[C@@H](C)C3)C(C)C)c(C)c2)c1` [12f, N-[(1S)-1-{[(3S)-4-(3-Hydroxyphenyl)-3-methylpiperazin-1-yl]methyl}-2-methylpropyl]-2-methyl-4-(3-methylphenoxy)benzamide], the Kb in assay [1] stood at 18 ± 3 nM; in assay [2], 14 ± 3 nM.

For `CCCCc1ccc(C(=O)N[C@H](CN2CCN(c3cccc(O)c3)[C@@H](C)C2)C(C)C)cc1` [compound 23, 4-Butyl-N-[(1S)-1-{[(3S)-4-(3-hydroxyphenyl)-3-methylpiperazin-1-yl]methyl}-2-methylpropyl]benzamide], the Kb is 21.1 ± 2 nM in assay [1], 230 ± 3 nM in assay [2] and 2.8 ± 1 nM in assay [3].
